These results are taken from patent publication US20250319206A1, “CRISPR/CAS GENE EDITING OF NEH4 AND/OR NEH5 DOMAINS IN NRF2” (Christina Care Gene Editing Institute, Inc., priority 2024, published 2025).

Holding throughout (format): cell-based, Human
The subject of one series is Panc-1 cells. As to the kind of experiment: Cell viability with gemcitabine, CellTiter-Glo 2.0, Panc-1 cells. The settings on record: Panc-1 cells, in the absence of gemcitabine. As for the experimental part:
Wildtype and transfected Panc-1 cells were plated to 24 well plates (n=5) at 50,000 cells per well and placed in incubator for 24 hours. The cells were then treated with either Gemcitabine (Selleckchem, Cat. S1714) or DMSO (Thermo Fisher, Cat. D12345). Cells treated with Gemcitabine were treated at one of the following concentrations: 0 μM, 2.5 μM, 5 μM, 25 μM while cells treated with DMSO were treated at: 0%, 0.025%, 0.05%, or 0.25%. Cells remained in Gemcitabine or DMSO for 72 hours before being evaluated using CellTiter-Glo 2.0 Cell Viability Assay (Promega, Cat. G9241).
Since our long-term objective is to develop an effective genetic treatment that would augment standard care, we decided to examine the possibility that we could restore sensitivity to gemcitabine by genetic editing of NRF2 in gemcitabine resistant Panc1 cells. We are using gemcitabine as a selection system to determine if gene editing at some level, can help restore tumor cell killing. We established the kill curve of Panc1 unedited cells by gemcitabine under our standard reaction conditions to serve as a baseline. […] Again, after 72 hours, each cell population was exposed to gemcitabine for an additional 72 hours and thereafter cell viability of the treated and untreated cells was measured using the Cell Titer 2.0 viability assay (Promega, Madison, WI, USA). […]
For orientation: ATP-based viability assays read luminescence as a measure of living cells.

In another series the test system is A549 cells. As to the kind of experiment: Cell viability (MTS) of gRNA-targeted A549 cells. The following applies: without any cisplatin exposure (0 uM), vs wildtype untransfected cells. From the text: (§1) FIG. 4A-C: Lung adenocarcinoma cells targeting Exon 3, 4, 5 of NRF2 and assessment of chemotherapy response. (FIG. 4A) A549 cells were transfected with each respective gRNA. Genomic DNA from each cell population was isolated and amplified across exon 3, 4 or 5 of the NRF2 gene. Amplicons were sanger sequenced and analyzed for indels at the CRISPR target site. The graph presents the total editing efficiency listed as Indel and frameshifting indel % listed as FS. (FIG. 4B) Raw sequence files from cells targeted with gRNA 76 or gRNA 83 were aligned using the software program, DECODR, to display the indel pattern (listed as INDEL and %). […] Viability was measured via bioreduction of MTS to a formazan product. […] The average relative viability of cells in response to cisplatin is graphed above.
(§2) To assess CRISPR activity across various exons of NRF2, several gRNAs were designed along exon 3, 4 and 5 of the NRF2 gene in the A549 cell line. The A549 cells were transfected with each individually designed gRNA and cells were collected 72 hours after transfection. Genomic DNA was isolated, PCR amplified and Sanger sequenced. Editing activity was quantified using DECODR to deconvolute the indels present in at the cut site of each gRNA. […]

In a further series the test system is NRF2 gene. As to the kind of experiment: NRF2 gene editing by Sanger sequencing/DECODR in A549 cells. The following applies: 72 hours after transfection.
Source text: as §1, §2

As to “sg83: gRNA targeting exon 4 of NRF2; GTAGCCCCTGTTGATTTAGA CGG (guide GTAGCCCCTGTTGATTTAGACGG; listed as DNA, chemistry not given here)”, the cell killing result with Panc-1 cells is on record as “approximately 40%”. In the series with A549 cells, the viability entry is “much lower viability”. Further, the “editing efficiency (comparison among gRNAs)” value in the series with NRF2 gene was “highest editing efficiency”.
